Read-outs that look alike come from different tables or passages of the source.
What was measured:
Test in all cases: AK assay 384-well format, Prestwick library screening
E. cloacae = format: cell-based, Enterobacter cloacae; conditions: 50 μM final drug concentration; for fold induction at 50 µM: Enterobacter cloacae, 3 h
E. coli = format: cell-based, Escherichia coli; conditions: 50 μM final drug concentration; for fold induction at 50 µM: Escherichia coli, 3 h
[1] = tested on: S. aureus strain USA300-0114; format: cell-based, Staphylococcus aureus; conditions: 50 μM final drug concentration; for fold induction at 50 µM: Staphylococcus aureus, USA300, 3 h
E. faecium = format: cell-based, Enterococcus faecium; conditions: 50 μM final drug concentration; for fold induction at 50 µM: Enterococcus faecium, 3 h
K. pneumoniae = format: cell-based, Klebsiella pneumoniae; conditions: 50 μM final drug concentration; for fold induction at 50 µM: Klebsiella pneumoniae, 3 h
P. aeruginosa = format: cell-based, Pseudomonas aeruginosa; conditions: 50 μM final drug concentration; for fold induction at 50 µM: Pseudomonas aeruginosa, 3 h
[2] = tested on: A. baumannii strain 98-37-09; format: cell-based, Acinetobacter baumannii; conditions: 50 μM final drug concentration; for fold induction at 50 µM: Acinetobacter baumannii, 983709, 3 h
[3] = planktonic, cutoff for positive-scoring molecules 3-fold increase, read-out: AK-based Prestwick Library Screening Results, E. cloacae (fold increase in extracellular AK activity)
[4] = planktonic, cutoff for positive-scoring molecules 3-fold increase, read-out: AK-based Prestwick Library Screening Results, E. coli (fold increase in extracellular AK activity)
[5] = planktonic, cutoff for positive-scoring molecules 3-fold increase, read-out: AK-based Prestwick Library Screening Results, S. aureus (fold increase in extracellular AK activity)
[6] = planktonic, cutoff for positive-scoring molecules 3-fold increase, read-out: AK-based Prestwick Library Screening Results, E. faecium (fold increase in extracellular AK activity)
[7] = planktonic, cutoff for positive-scoring molecules 3-fold increase, read-out: AK-based Prestwick Library Screening Results, K. pneumoniae (fold increase in extracellular AK activity)
[8] = planktonic, cutoff for positive-scoring molecules 3-fold increase, read-out: AK-based Prestwick Library Screening Results, P. aeruginosa (fold increase in extracellular AK activity)
[9] = planktonic, cutoff for positive-scoring molecules 3-fold increase, read-out: AK-based Prestwick Library Screening Results, A. baumannii (fold increase in extracellular AK activity)
[10] = planktonic E. cloacae, cutoff for positive-scoring molecules 3-fold increase, read-out: AK-based Prestwick Library Screening Results, E. cloacae (increase in extracellular AK activity)
[11] = planktonic E. coli, cutoff for positive-scoring molecules 3-fold increase, read-out: AK-based Prestwick Library Screening Results, E. coli (increase in extracellular AK activity)
[12] = planktonic S. aureus, cutoff for positive-scoring molecules 3-fold increase, read-out: AK-based Prestwick Library Screening Results, S. aureus (increase in extracellular AK activity)
[13] = planktonic E. faecium, cutoff for positive-scoring molecules 3-fold increase, read-out: AK-based Prestwick Library Screening Results, E. faecium (increase in extracellular AK activity)
[14] = planktonic K. pneumoniae, cutoff for positive-scoring molecules 3-fold increase, read-out: AK-based Prestwick Library Screening Results, K. pneumoniae (increase in extracellular AK activity)
[15] = planktonic P. aeruginosa, cutoff for positive-scoring molecules 3-fold increase, read-out: AK-based Prestwick Library Screening Results, P. aeruginosa (increase in extracellular AK activity)
[16] = planktonic A. baumannii, cutoff for positive-scoring molecules 3-fold increase, read-out: AK-based Prestwick Library Screening Results, A. baumannii (increase in extracellular AK activity)
[17] = planktonic E. cloacae, cutoff for positive-scoring molecules 3-fold increase
[18] = planktonic S. aureus, cutoff for positive-scoring molecules 3-fold increase
[19] = planktonic E. faecium, cutoff for positive-scoring molecules 3-fold increase
[20] = planktonic K. pneumoniae, cutoff for positive-scoring molecules 3-fold increase
[21] = planktonic P. aeruginosa, cutoff for positive-scoring molecules 3-fold increase
[22] = planktonic A. baumannii, cutoff for positive-scoring molecules 3-fold increase

CC(=O)Nc1cc2ccccc2oc1=O [Compound 3-Acetamidocoumarin, 3-Acetamidocoumarin]
fold induction at 50 µM (E. cloacae; cutoff for positive-scoring molecules 3-fold increase, read-out: AK-based Prestwick Library Screening Results, E. cloacae (fold increase in extracellular AK activity)): 0.4 | fold induction at 50 µM (E. coli; cutoff for positive-scoring molecules 3-fold increase, read-out: AK-based Prestwick Library Screening Results, E. coli (fold increase in extracellular AK activity)): 0.5 | fold induction at 50 µM ([1]; cutoff for positive-scoring molecules 3-fold increase, read-out: AK-based Prestwick Library Screening Results, S. aureus (fold increase in extracellular AK activity)): 0.4 | fold induction at 50 µM (E. faecium; cutoff for positive-scoring molecules 3-fold increase, read-out: AK-based Prestwick Library Screening Results, E. faecium (fold increase in extracellular AK activity)): 0.8 | fold induction at 50 µM (K. pneumoniae; cutoff for positive-scoring molecules 3-fold increase, read-out: AK-based Prestwick Library Screening Results, K. pneumoniae (fold increase in extracellular AK activity)): 0.4 | fold induction at 50 µM (P. aeruginosa; cutoff for positive-scoring molecules 3-fold increase, read-out: AK-based Prestwick Library Screening Results, P. aeruginosa (fold increase in extracellular AK activity)): 0.4 | fold induction at 50 µM ([2]; cutoff for positive-scoring molecules 3-fold increase, read-out: AK-based Prestwick Library Screening Results, A. baumannii (fold increase in extracellular AK activity)): 0.4

CC(=O)c1cc2ccccc2oc1=O [Compound 3-Acetylcoumarin, 3-Acetylcoumarin]
fold induction at 50 µM (E. cloacae; [3]): 1.1 | fold induction at 50 µM (E. coli; [4]): 0.7 | fold induction at 50 µM [1, 5]: 0.6 | fold induction at 50 µM (E. faecium; [6]): 0.9 | fold induction at 50 µM (K. pneumoniae; [7]): 0.6 | fold induction at 50 µM (P. aeruginosa; [8]): 0.8 | fold induction at 50 µM [2, 9]: 0.8

c1coc(CNc2ncnc3nc[nH]c23)c1 [Compound 6-Furfurylaminopurine, 6-Furfurylaminopurine]
fold induction at 50 µM (E. cloacae; [3]): 0.9 | fold induction at 50 µM (E. coli; [4]): 0.7 | fold induction at 50 µM [1, 5]: 0.6 | fold induction at 50 µM (E. faecium; [6]): 0.9 | fold induction at 50 µM (K. pneumoniae; [7]): 0.5 | fold induction at 50 µM (P. aeruginosa; [8]): 0.7 | fold induction at 50 µM [2, 9]: 0.7

CN1C2CC(=O)CC1C(O)C2 (stereo not shown) [Compound 6-Hydroxytropinone]
AK-based Prestwick Library Screening Results, E. cloacae (fold increase in extracellular AK activity) (E. cloacae; […]): 0.4 | AK-based Prestwick Library Screening Results, E. coli (fold increase in extracellular AK activity) (E. coli; […]): 0.5 | AK-based Prestwick Library Screening Results, S. aureus (fold increase in extracellular AK activity) ([1]; […]): 0.4 | AK-based Prestwick Library Screening Results, E. faecium (fold increase in extracellular AK activity) (E. faecium; […]): 0.9 | AK-based Prestwick Library Screening Results, K. pneumoniae (fold increase in extracellular AK activity) (K. pneumoniae; […]): 0.5 | AK-based Prestwick Library Screening Results, P. aeruginosa (fold increase in extracellular AK activity) (P. aeruginosa; […]): 0.4 | AK-based Prestwick Library Screening Results, A. baumannii (fold increase in extracellular AK activity) ([2]; […]): 0.5

CNc1ncnc2c1ncn2[C@@H]1O[C@H](CO)[C@@H](O)[C@H]1O [Compound N6-methyladenosine, N6-methyladenosine]
fold induction at 50 µM (E. cloacae; [10]): 0.7 | fold induction at 50 µM (E. coli; [11]): 0.6 | fold induction at 50 µM [1, 12]: 0.5 | fold induction at 50 µM (E. faecium; [13]): 0.9 | fold induction at 50 µM (K. pneumoniae; [14]): 0.5 | fold induction at 50 µM (P. aeruginosa; [15]): 0.6 | fold induction at 50 µM [2, 16]: 0.6

CCN1C[C@]2(COC)CC[C@H](O)[C@@]34C5C[C@@H]6[C@@H](OC)C[C@](O)(C(CC23)C14)C5[C@H]6OC(C)=O (stereo partly shown) [Condelphine]
fold induction at 50 µM (E. cloacae; planktonic E. cloacae, […], read-out: AK-based Prestwick library screening result, E. cloacae (fold increase in extracellular AK activity)): 1.2 | fold induction at 50 µM (E. coli; planktonic E. coli, […], read-out: AK-based Prestwick library screening result, E. coli (fold increase in extracellular AK activity)): 1.1 | fold induction at 50 µM ([1]; planktonic S. aureus, […], read-out: AK-based Prestwick library screening result, S. aureus (fold increase in extracellular AK activity)): 1.1 | fold induction at 50 µM (E. faecium; planktonic E. faecium, […], read-out: AK-based Prestwick library screening result, E. faecium (fold increase in extracellular AK activity)): 1.1 | fold induction at 50 µM (K. pneumoniae; planktonic K. pneumoniae, […], read-out: AK-based Prestwick library screening result, K. pneumoniae (fold increase in extracellular AK activity)): 1 | fold induction at 50 µM (P. aeruginosa; planktonic P. aeruginosa, […], read-out: AK-based Prestwick library screening result, P. aeruginosa (fold increase in extracellular AK activity)): 1 | fold induction at 50 µM ([2]; planktonic A. baumannii, […], read-out: AK-based Prestwick library screening result, A. baumannii (fold increase in extracellular AK activity)): 1.1

C[C@H]1[C@H]2CC[C@H]3[C@@H]4CC=C5C[C@@H](N(C)C)CC[C@]5(C)[C@H]4CC[C@]23CN1C [Conessine]
fold induction at 50 µM (E. cloacae; planktonic, cutoff for positive 3-fold increase, read-out: AK-based Prestwick Library Screening Results, E. cloacae (fold increase in extracellular AK activity)): 1.6 | fold induction at 50 µM (E. coli; planktonic, cutoff for positive 3-fold increase, read-out: AK-based Prestwick Library Screening Results, E. coli (fold increase in extracellular AK activity)): 1.5 | fold induction at 50 µM ([1]; planktonic, cutoff for positive 3-fold increase, read-out: AK-based Prestwick Library Screening Results, S. aureus (fold increase in extracellular AK activity)): 1.2 | fold induction at 50 µM (E. faecium; planktonic, cutoff for positive 3-fold increase, read-out: AK-based Prestwick Library Screening Results, E. faecium (fold increase in extracellular AK activity)): 1.1 | fold induction at 50 µM (K. pneumoniae; planktonic, cutoff for positive 3-fold increase, read-out: AK-based Prestwick Library Screening Results, K. pneumoniae (fold increase in extracellular AK activity)): 1.2 | fold induction at 50 µM (P. aeruginosa; planktonic, cutoff for positive 3-fold increase, read-out: AK-based Prestwick Library Screening Results, P. aeruginosa (fold increase in extracellular AK activity)): 1.2 | fold induction at 50 µM ([2]; planktonic, cutoff for positive 3-fold increase, read-out: AK-based Prestwick Library Screening Results, A. baumannii (fold increase in extracellular AK activity)): 1.4

COc1ccc(C(=O)OC2C[C@H]3CC[C@@H](C2)N3C)cc1OC.Cl (stereo partly shown) [Convolamine hydrochloride]
AK-based Prestwick Library Screening Results, E. cloacae (increase in extracellular AK activity) (E. cloacae; [17]): 1.3 | AK-based Prestwick Library Screening Results, E. coli (increase in extracellular AK activity) (E. coli; planktonic E. coli, cutoff for positive-scoring molecules 3-fold increase): 1.1 | AK-based Prestwick Library Screening Results, S. aureus (increase in extracellular AK activity) [1, 18]: 0.6 | AK-based Prestwick Library Screening Results, E. faecium (increase in extracellular AK activity) (E. faecium; [19]): 0.9 | AK-based Prestwick Library Screening Results, K. pneumoniae (increase in extracellular AK activity) (K. pneumoniae; [20]): 0.7 | AK-based Prestwick Library Screening Results, P. aeruginosa (increase in extracellular AK activity) (P. aeruginosa; [21]): 0.8 | AK-based Prestwick Library Screening Results, A. baumannii (increase in extracellular AK activity) [2, 22]: 1.0

COc1cc2cc3c4cc(OC)c(OC)cc4cc[n+]3c(C)c2cc1OC.O.[Cl-] [Coralyne chloride hydrate]
AK-based Prestwick Library Screening Results, E. cloacae (increase in extracellular AK activity) (E. cloacae; [17]): 1.1 | AK-based Prestwick Library Screening Results, E. coli (increase in extracellular AK activity) (E. coli; planktonic E. coli, […]): 0.9 | AK-based Prestwick Library Screening Results, S. aureus (increase in extracellular AK activity) [1, 18]: 0.4 | AK-based Prestwick Library Screening Results, E. faecium (increase in extracellular AK activity) (E. faecium; [19]): 0.9 | AK-based Prestwick Library Screening Results, K. pneumoniae (increase in extracellular AK activity) (K. pneumoniae; [20]): 0.6 | AK-based Prestwick Library Screening Results, P. aeruginosa (increase in extracellular AK activity) (P. aeruginosa; [21]): 0.8 | AK-based Prestwick Library Screening Results, A. baumannii (increase in extracellular AK activity) [2, 22]: 0.8

C[C@]12C[C@H](O)[C@H]3[C@@H](CCC4=CC(=O)CC[C@@]43C)[C@@H]1CC[C@@H]2C(=O)CO [Corticosterone]
fold induction at 50 µM (E. cloacae; [10]): 1.2 | fold induction at 50 µM (E. coli; [11]): 0.9 | fold induction at 50 µM [1, 12]: 0.6 | fold induction at 50 µM (E. faecium; [13]): 0.9 | fold induction at 50 µM (K. pneumoniae; [14]): 0.7 | fold induction at 50 µM (P. aeruginosa; [15]): 0.8 | fold induction at 50 µM [2, 16]: 0.9

Reference: patent US10004701B2, “Methods and compositions for treating infection” (UNIVERSITY OF ROCHESTER, priority 2012, dated 2018)
